Laboratory results reported in PubChem BioAssay AID1918994 (Molecular Pharmacology Branch, DTP, NCI, 2023).
Where “and” joins values, the source holds several entries; their conditions need not be identical. Equal values may be shown once.

System: 292921-168-R-J2-PDC complex spheroid growth
Test: Anticancer human tumor 292921-168-R-J2-PDC patient-derived pancreatic carcinoma cell line growth inhibition [AhR]
Settings: for viability, T/C: stronger effect = lower value
How it was run: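 Complex tumor spheroids co-cultured with HUVEC and human MSC stroma; AhR antagonists tested in combination with standard-of-care and investigational agents. Top concentration at or near clinical Cmax (else 10 microM), half-log dilutions; growth expressed as percent test/control.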

[1] = curve of first compound, second compound 0.1 µM
[2] = curve of first compound, second compound 0.316 µM
[3] = curve of first compound, second compound 1 µM
[4] = curve of first compound, second compound 3.16 µM
[5] = curve of first compound, second compound 10 µM
[6] = second compound 0.1 µM, first compound 0.0316 µM
[7] = second compound 0.1 µM, first compound 0.1 µM
[8] = second compound 0.1 µM, first compound 0.316 µM
[9] = second compound 0.1 µM, first compound 1 µM
[10] = second compound 0.1 µM, first compound 3.16 µM
[11] = second compound 0.1 µM, first compound 10 µM
[12] = second compound 0.316 µM, first compound 0.0316 µM
[13] = second compound 0.316 µM, first compound 0.1 µM
[14] = second compound 0.316 µM, first compound 0.316 µM
[15] = second compound 0.316 µM, first compound 1 µM
[16] = second compound 0.316 µM, first compound 3.16 µM
[17] = second compound 0.316 µM, first compound 10 µM
[18] = second compound 1 µM, first compound 0.0316 µM
[19] = second compound 1 µM, first compound 0.1 µM
[20] = second compound 1 µM, first compound 0.316 µM
[21] = second compound 1 µM, first compound 1 µM
[22] = second compound 1 µM, first compound 3.16 µM
[23] = second compound 1 µM, first compound 10 µM
[24] = second compound 3.16 µM, first compound 0.0316 µM
[25] = second compound 3.16 µM, first compound 0.1 µM
[26] = second compound 3.16 µM, first compound 0.316 µM
[27] = second compound 3.16 µM, first compound 1 µM
[28] = second compound 3.16 µM, first compound 3.16 µM
[29] = second compound 3.16 µM, first compound 10 µM
[30] = second compound 10 µM, first compound 0.0316 µM
[31] = second compound 10 µM, first compound 0.1 µM
[32] = second compound 10 µM, first compound 0.316 µM
[33] = second compound 10 µM, first compound 1 µM
[34] = second compound 10 µM, first compound 3.16 µM
[35] = second compound 10 µM, first compound 10 µM
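Note: spheroids exposed to compounds for seven days after three days of growth.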

Q: With O=C(C=Cn1cnc(-c2cc(C(F)(F)F)cc(C(F)(F)F)c2)n1)NNc1cnccn1 + CC(CO)NC(=O)c1cc(-c2ccc(Cl)cc2)nn(-c2cnn(C)c2)c1=O as the compound, how does the IC50 [1] read?
A: Its IC50 is 88.1 nM.

Q: And the IC50 [2]?
A: The IC50 was 106 nM.

Q: What about the IC50 [3] of the same compound?
A: The IC50 was 97.7 nM.

Q: What about the IC50 [4] of the same compound?
A: The IC50 was 80.2 nM.

Q: What about the IC50 [5] of the same compound?
A: Its IC50 is 49.8 nM.

Q: And the viability, T/C (second compound 0.1 µM, first compound 0.00949 µM)?
A: The viability, T/C was 85.4%.

Q: What about the viability, T/C (second compound 0.1 µM, first compound 0.03 µM) of the same compound?
A: Its viability, T/C is 91%.

Q: What about the viability, T/C (second compound 0.1 µM, first compound 0.0949 µM) of the same compound?
A: The viability, T/C was 47%.

Q: And the viability, T/C (second compound 0.1 µM, first compound 0.3 µM)?
A: The viability, T/C was 31.1%.

Q: What about the viability, T/C (second compound 0.1 µM, first compound 0.949 µM) of the same compound?
A: Its viability, T/C is 22.5%.

Q: What about the viability, T/C (second compound 0.1 µM, first compound 3 µM) of the same compound?
A: The viability, T/C was 13.4%.

Q: What about the viability, T/C (second compound 0.316 µM, first compound 0.00949 µM) of the same compound?
A: The viability, T/C was 84.6%.

Q: And the viability, T/C (second compound 0.316 µM, first compound 0.03 µM)?
A: The viability, T/C was 75.5%.

Q: And the viability, T/C (second compound 0.316 µM, first compound 0.0949 µM)?
A: The viability, T/C was 49.8%.

Q: What about the viability, T/C (second compound 0.316 µM, first compound 0.3 µM) of the same compound?
A: The viability, T/C was 32%.

Q: What about the viability, T/C (second compound 0.316 µM, first compound 0.949 µM) of the same compound?
A: The viability, T/C was 20.2%.

Q: And the viability, T/C (second compound 0.316 µM, first compound 3 µM)?
A: Its viability, T/C is 13.2%.

Q: What about the viability, T/C (second compound 1 µM, first compound 0.00949 µM) of the same compound?
A: Its viability, T/C is 93.6%.

Q: And the viability, T/C (second compound 1 µM, first compound 0.03 µM)?
A: Its viability, T/C is 76.5%.

Q: What about the viability, T/C (second compound 1 µM, first compound 0.0949 µM) of the same compound?
A: Its viability, T/C is 50.5%.

Q: What about the viability, T/C (second compound 1 µM, first compound 0.3 µM) of the same compound?
A: Its viability, T/C is 28.9%.

Q: And the viability, T/C (second compound 1 µM, first compound 0.949 µM)?
A: The viability, T/C was 19.1%.

Q: What about the viability, T/C (second compound 1 µM, first compound 3 µM) of the same compound?
A: The viability, T/C was 14.3%.

Q: What about the viability, T/C (second compound 3.16 µM, first compound 0.00949 µM) of the same compound?
A: Its viability, T/C is 84.5%.

Q: What about the viability, T/C (second compound 3.16 µM, first compound 0.03 µM) of the same compound?
A: The viability, T/C was 67.8%.

Q: And the viability, T/C (second compound 3.16 µM, first compound 0.0949 µM)?
A: The viability, T/C was 47%.

Q: And the viability, T/C (second compound 3.16 µM, first compound 0.3 µM)?
A: Its viability, T/C is 29.6%.

Q: What about the viability, T/C (second compound 3.16 µM, first compound 0.949 µM) of the same compound?
A: The viability, T/C was 17.7%.

Q: What about the viability, T/C (second compound 3.16 µM, first compound 3 µM) of the same compound?
A: Its viability, T/C is 14.7%.

Q: And the viability, T/C (second compound 10 µM, first compound 0.00949 µM)?
A: Its viability, T/C is 66.2%.

Q: What about the viability, T/C (second compound 10 µM, first compound 0.03 µM) of the same compound?
A: Its viability, T/C is 58.9%.

Q: And the viability, T/C (second compound 10 µM, first compound 0.0949 µM)?
A: Its viability, T/C is 39.1%.

Q: What about the viability, T/C (second compound 10 µM, first compound 0.3 µM) of the same compound?
A: Its viability, T/C is 22.4%.

Q: And the viability, T/C (second compound 10 µM, first compound 0.949 µM)?
A: The viability, T/C was 18.5%.

Q: And the viability, T/C (second compound 10 µM, first compound 3 µM)?
A: The viability, T/C was 13.2%.

Q: What does the source list for COc1cc(Nc2ncc3c(n2)-c2ccc(Cl)cc2C(c2c(F)cccc2OC)=NC3)ccc1C(=O)O + Cc1ccccc1N=Nc1ccc(NC(=O)c2ccnn2C)c(C)c1?
A: IC50 [1]: < 31.6 nM; IC50 [2]: < 31.6 nM; IC50 [3]: < 31.6 nM; IC50 [4]: < 31.6 nM; IC50 [5]: < 31.6 nM; viability, T/C [6]: 45.7%; viability, T/C [7]: 37.9%; viability, T/C [8]: 53.5%; viability, T/C [9]: 45.1%; viability, T/C [10]: 39.8%; viability, T/C [11]: 29.1%; viability, T/C [12]: 42.2%; viability, T/C [13]: 42.6%; viability, T/C [14]: 43%; viability, T/C [15]: 41%; viability, T/C [16]: 36.8%; viability, T/C [17]: 30.3%; viability, T/C [18]: 46.2%; viability, T/C [19]: 34.2%; viability, T/C [20]: 45.8%; viability, T/C [21]: 42.7%; viability, T/C [22]: 40.9%; viability, T/C [23]: 24%; viability, T/C [24]: 32.8%; viability, T/C [25]: 35%; viability, T/C [26]: 40.6%; viability, T/C [27]: 36.5%; viability, T/C [28]: 34.8%; viability, T/C [29]: 23.1%; viability, T/C [30]: 34%; viability, T/C [31]: 35.5%; viability, T/C [32]: 33.4%; viability, T/C [33]: 33.8%; viability, T/C [34]: 30%; viability, T/C [35]: 20.5%

Q: For CCc1c2c(nc3ccc(O)cc13)-c1cc3c(c(=O)n1C2)COC(=O)[C@]3(O)CC, which viability, T/C (compound 0.000949 µM) is on record?
A: The viability, T/C was 72.1% and 79.3% and 54.5%.

Q: What about the viability, T/C (compound 0.003 µM) of the same compound?
A: The viability, T/C was 53.6% and 63.4% and 47.4%.

Q: What about the viability, T/C (compound 0.00949 µM) of the same compound?
A: The viability, T/C was 25.5% and 20.2% and 23.6%.

Q: What about the viability, T/C (compound 0.03 µM) of the same compound?
A: The viability, T/C was 12.2% and 9.77% and 13%.

Q: What about the viability, T/C (compound 0.0949 µM) of the same compound?
A: Its viability, T/C is 6.69% and 4.55% and 7%.

Q: What about the viability, T/C (compound 0.3 µM) of the same compound?
A: The viability, T/C was 3.7% and 2.95% and 3.56%.

Q: What about the IC50 (curve of compound) of the same compound?
A: Its IC50 is 3.42 nM and 4.29 nM and 1.79 nM.

Q: With Nc1ccccc1NC(=O)c1ccc(CNC(=O)OCc2cccnc2)cc1 + Cc1cncc(-c2nc(NCCc3c[nH]c4ccccc34)c3ncn(C(C)C)c3n2)c1 as the compound, how does the IC50 [1] read?
A: Its IC50 is 351 nM.

Q: What about the IC50 [2] of the same compound?
A: The IC50 was 242 nM.

Q: And the IC50 [3]?
A: The IC50 was 251 nM.

Q: What about the IC50 [4] of the same compound?
A: Its IC50 is < 31.6 nM.

Q: And the IC50 [5]?
A: The IC50 was < 31.6 nM.

Q: What about the viability, T/C [6] of the same compound?
A: The viability, T/C was 75.2%.

Q: What about the viability, T/C [7] of the same compound?
A: Its viability, T/C is 63.8%.

Q: And the viability, T/C [8]?
A: Its viability, T/C is 48.1%.

Q: What about the viability, T/C [9] of the same compound?
A: Its viability, T/C is 40.9%.

Q: What about the viability, T/C [10] of the same compound?
A: Its viability, T/C is 27.9%.

Q: What about the viability, T/C [11] of the same compound?
A: Its viability, T/C is 13.4%.

Q: What about the viability, T/C [12] of the same compound?
A: The viability, T/C was 68.2%.

Q: What about the viability, T/C [13] of the same compound?
A: Its viability, T/C is 57%.

Q: And the viability, T/C [14]?
A: Its viability, T/C is 49.7%.

Q: And the viability, T/C [15]?
A: The viability, T/C was 33.6%.

Q: What about the viability, T/C [16] of the same compound?
A: The viability, T/C was 25.7%.

Q: What about the viability, T/C [17] of the same compound?
A: Its viability, T/C is 11.5%.

Q: What about the viability, T/C [18] of the same compound?
A: Its viability, T/C is 58.4%.

Q: And the viability, T/C [19]?
A: The viability, T/C was 60.7%.

Q: And the viability, T/C [20]?
A: Its viability, T/C is 45.7%.

Q: And the viability, T/C [21]?
A: Its viability, T/C is 35.9%.

Q: And the viability, T/C [22]?
A: Its viability, T/C is 22.9%.

Q: What about the viability, T/C [23] of the same compound?
A: Its viability, T/C is 11.9%.

Q: What about the viability, T/C [24] of the same compound?
A: Its viability, T/C is 43.5%.

Q: What about the viability, T/C [25] of the same compound?
A: The viability, T/C was 47.4%.

Q: And the viability, T/C [26]?
A: Its viability, T/C is 39.3%.

Q: And the viability, T/C [27]?
A: Its viability, T/C is 30.5%.

Q: And the viability, T/C [28]?
A: Its viability, T/C is 17.2%.

Q: What about the viability, T/C [29] of the same compound?
A: The viability, T/C was 10.9%.

Q: What about the viability, T/C [30] of the same compound?
A: The viability, T/C was 27.8%.

Q: And the viability, T/C [31]?
A: Its viability, T/C is 27.9%.

Q: What about the viability, T/C [32] of the same compound?
A: Its viability, T/C is 22.6%.

Q: And the viability, T/C [33]?
A: The viability, T/C was 22.4%.

Q: And the viability, T/C [34]?
A: The viability, T/C was 15.4%.

Q: What about the viability, T/C [35] of the same compound?
A: Its viability, T/C is 7.52%.
